Measurements from US9663478B2, “Benzotriazine oxides as drugs targeting Mycobacterium tuberculosis” (priority 2011, dated 2017).
Converted amounts (≈) assume the structure as drawn. Read-outs that look alike come from different tables or passages of the source.

Columns and labels:
Mtb H37Rv [1] = assay: TB MIC - ITR (UIC), Institute for Tuberculosis Research; format: cell-based, Mycobacterium tuberculosis; conditions: for TB MIC - UIC: Tables P1, P2; for MIC: Mycobacterium tuberculosis, H37RV, read-out: TB MIC - ITR
NRP Mtb H37Rv cells = assay: Low-oxygen recovery assay (LORA) MIC; format: cell-based, Mycobacterium tuberculosis; conditions: for LORA MIC: Tables P1, P2, non-replicating M. tuberculosis; for MIC: Mycobacterium tuberculosis, H37RV, read-out: LORA MIC - ITR
Mtb H37Rv [2] = assay: TB MIC - SRI, resazurin-based microplate assay; format: cell-based, Mycobacterium tuberculosis; conditions: for MIC: Mycobacterium tuberculosis, H37RV
[3] = Tables P1-P3, read-out: TB MIC - SRI
[4] = Tables 1-4 and text, read-out: TB MIC - SRI
[5] = read-out: Activity against H37Rv, Table P4
[6] = read-out: TB MIC - SRI, Tables P1-P3

Row | Compound | MIC (NRP Mtb H37Rv cells; NRP Mtb, Tables 1-4 and text) [µg/mL] | MIC (Mtb H37Rv [2]; [4]) [µg/mL] | Vero Tox CC50 (Vero cells; African green monkey, 72 h) [µg/mL] | MIC (Mtb H37Rv [1]; Tables 1-4) [µg/mL] | also measured
1 | [O-][n+]1nc(N[C@@H]2C[C@H]3CC[C@@H]2C3)[n+]([O-])c2ccc(F)cc21 (racemic) [SRI-012280] | – | – | – | – | TB MIC - UIC (Mtb H37Rv [1]): < 0.125 µg/mL; LORA MIC (NRP Mtb H37Rv cells): 0.21 µg/mL; MIC (Mtb H37Rv [2]; [3]): 0.312 µg/mL (≈ 1.07 µM); VERO Tox-SRI (Vero cells; African green monkey, 72 h): <2.5
2 | COCCNC(=O)c1ccc2c(c1)[n+]([O-])c(O)c(C#N)[n+]2[O-] [Cmpd 4] | > 32 | > 20 | >16 | – | –
3 | COCCNC(=O)c1ccc2c(c1)[n+]([O-])c(C(C)=O)c(C)[n+]2[O-] [Cmpd 5] | > 32 | 10 (≈ 31.3 µM) | >16 | 27 (≈ 84.6 µM) | –
4 | Cc1c(N2CCCC2)[n+]([O-])c2ccccc2[n+]1[O-] [Cmpd 6] | > 32 | > 10 | >16 | – | –
5 | CC(C)(C)Nc1n[n+]([O-])c2ccccc2[n+]1[O-] [Compound 8c, 3-(tert-butylamino)benzo[e][1,2,4]triazine 1,4-dioxide] | 0.82 (≈ 3.5 µM) | 1.2 (≈ 5.12 µM) | 8.0 | 1.9 (≈ 8.11 µM) | MIC (Mtb H37Rv [2]; Table 5, read-out: MIC, H37Rv): 2.5 µg/mL (≈ 10.7 µM)
6 | [O-][n+]1nc(NC2CCCC2)[n+]([O-])c2ccccc21 [Compound 8e, 3-(cyclopentylamino)benzo[e][1,2,4]triazine 1,4-dioxide] | 0.68 (≈ 2.76 µM) | 2.5 (≈ 10.2 µM) | 10 | 3.6 (≈ 14.6 µM) | –
7 | CCCC(C)Nc1n[n+]([O-])c2ccccc2[n+]1[O-] (stereo not drawn) [Compound 8h, 3-(pentan-2-ylamino)benzo[e][1,2,4]triazine 1,4-dioxide] | 0.99 (≈ 3.99 µM) | 5 (≈ 20.1 µM) | 26 | 1.9 (≈ 7.65 µM) | –
8 | C[C@@H](Nc1n[n+]([O-])c2ccccc2[n+]1[O-])C1CCCCC1 [Compound 8k, (R)-3-((1-cyclohexylethyl)amino)benzo[e][1,2,4]triazine 1,4-dioxide] | 0.36 (≈ 1.25 µM) | 1.2 (≈ 4.16 µM) | 8.9 | 0.92 (≈ 3.19 µM) | –
9 | [O-][n+]1nc(N[C@@H]2C[C@H]3CC[C@@H]2C3)[n+]([O-])c2ccccc21 [Compound 8m, 3-((1R,2R,4S)-bicyclo[2.2.1]heptan-2-ylamino)benzo[e][1,2,4]triazine 1,4-dioxide] | 0.42 (≈ 1.54 µM) | 0.62 (≈ 2.28 µM) | 3.4 | 0.6 (≈ 2.2 µM) | –
10 | [O-][n+]1nc(N[C@H]2[C@@H]3C[C@H]4C[C@@H](C3)C[C@@H]2C4)[n+]([O-])c2ccccc21 [Compound 8n, 3-((1R,3S,5r,7r)-adamantan-2-ylamino)benzo[e][1,2,4]triazine 1,4-dioxide] | – | – | – | – | TB MIC - ITR (Mtb H37Rv [1]; Tables 1-4): 1.9 µg/mL; LORA MIC - ITR (NRP Mtb H37Rv cells; NRP Mtb, Tables 1-4 and text): 2.3 µg/mL; TB MIC - SRI (Mtb H37Rv [2]; Tables 1-4 and text): 2.5 µg/mL; Vero Tox CC50 (Vero cells): 7.3 µg/mL
11 | [O-][n+]1nc(NC2CC2)[n+]([O-])c2ccc(F)cc21 [Compound 15ab, 3-(cyclopropylamino)-7-fluorobenzo[e][1,2,4]triazine 1,4-dioxide] | – | 0.31 (≈ 1.31 µM) | 1.3 | 0.93 (≈ 3.94 µM) | MIC (NRP Mtb H37Rv cells): 3.5 µg/mL (≈ 14.8 µM)
12 | [O-][n+]1nc(NC2CCC2)[n+]([O-])c2ccc(F)cc21 [Compound 15ad, 3-(cyclobutylamino)-7-fluorobenzo[e][1,2,4]triazine 1,4-dioxide] | – | 0.31 (≈ 1.24 µM) | 1.6 | 0.4 (≈ 1.6 µM) | MIC (NRP Mtb H37Rv cells): 0.88 µg/mL (≈ 3.52 µM)
13 | [O-][n+]1nc(N[C@@H]2C[C@H]3CC[C@@H]2C3)[n+]([O-])c2ccc(F)cc21 [Compound 15am, 3-((1R,2R,4S)-bicyclo[2.2.1]heptan-2-ylamino)-7-fluorobenzo[e][1,2,4]triazine 1,4-dioxide] | 0.21 (≈ 0.723 µM) | 0.31 (≈ 1.07 µM) | <2.5 | < 0.12 | –
14 | CCNc1n[n+]([O-])c2cc(Cl)ccc2[n+]1[O-] [Compound 15ba, 7-chloro-3-(ethylamino)benzo[e][1,2,4]triazine 1,4-dioxide] | 0.41 (≈ 1.7 µM) | 1.2 (≈ 4.99 µM) | 2.6 | < 0.12 | –
15 | [O-][n+]1nc(NC2CC2)[n+]([O-])c2ccc(Cl)cc21 [Compound 15bb, 7-chloro-3-(cyclopropylamino)benzo[e][1,2,4]triazine 1,4-dioxide] | 0.22 (≈ 0.871 µM) | 0.62 (≈ 2.45 µM) | 1.3 | 0.21 (≈ 0.831 µM) | –
16 | [O-][n+]1nc(NC2CCCCC2)[n+]([O-])c2ccc(Cl)cc21 [Compound 15bf, 7-chloro-3-(cyclohexylamino)benzo[e][1,2,4]triazine 1,4-dioxide] | 0.63 (≈ 2.14 µM) | 0.62 (≈ 2.1 µM) | 2.6 | 0.94 (≈ 3.19 µM) | –
17 | [O-][n+]1nc(N[C@@H]2C[C@H]3CC[C@@H]2C3)[n+]([O-])c2ccc(Cl)cc21 [Compound 15bm, 3-((1R,2R,4S)-bicyclo[2.2.1]heptan-2-ylamino)-7-chlorobenzo[e][1,2,4]triazine 1,4-dioxide] | 0.23 (≈ 0.75 µM) | 0.15 (≈ 0.489 µM) | 1.1 | 0.22 (≈ 0.717 µM) | –
18 | CCNc1n[n+]([O-])c2cc(Br)ccc2[n+]1[O-] [Compound 15ca, 7-bromo-3-(ethylamino)benzo[e][1,2,4]triazine 1,4-dioxide] | 0.46 (≈ 1.61 µM) | 0.62 (≈ 2.17 µM) | 4.2 | 0.49 (≈ 1.72 µM) | –
19 | [O-][n+]1nc(NC2CCC2)[n+]([O-])c2ccc(Br)cc21 [Compound 15cd, 7-bromo-3-(cyclobutylamino)benzo[e][1,2,4]triazine 1,4-dioxide] | 0.41 (≈ 1.32 µM) | 0.15 (≈ 0.482 µM) | 3.8 | 0.46 (≈ 1.48 µM) | –
20 | [O-][n+]1nc(NC2CCCC2)[n+]([O-])c2ccc(Br)cc21 [Compound 15ce, 7-bromo-3-(cyclopentylamino)benzo[e][1,2,4]triazine 1,4-dioxide] | 0.46 (≈ 1.41 µM) | 0.15 (≈ 0.461 µM) | 18 | 0.35 (≈ 1.08 µM) | –
21 | CCNc1n[n+]([O-])c2cc(C)c(OC)cc2[n+]1[O-] [Compound 15ga, 3-(ethylamino)-6-methoxy-7-methylbenzo[e][1,2,4]triazine 1,4-dioxide] | – | 2.5 (≈ 9.99 µM) | >100 | 3.5 (≈ 14 µM) | MIC (Mtb H37Rv [2]; Table 5, read-out: MIC, H37Rv): 1.2 µg/mL (≈ 4.8 µM)
22 | CN(Cc1ccccc1)c1n[n+]([O-])c2cc3c(cc2[n+]1[O-])CCC3 [Compound 20t, 3-(benzyl(methyl)amino)-7,8-dihydro-6H-indeno[5,6-e][1,2,4]triazine 1,4-dioxide] | 0.41 (≈ 1.27 µM) | – | 17 | – | MIC (Mtb H37Rv [2]; Table 5, read-out: MIC, H37Rv): 0.31 µg/mL (≈ 0.962 µM)
23 | CCNc1n[n+]([O-])c2cc(OC)ccc2[n+]1[O-] [SRI-012285] | – | – | – | – | TB MIC - UIC (Mtb H37Rv [1]): 15.1 µg/mL; LORA MIC (NRP Mtb H37Rv cells): 16.2 µg/mL; VERO Tox-SRI (Vero cells; African green monkey, 72 h): 15.8
24 | [O-][n+]1nc(N[C@@H]2C[C@H]3CC[C@@H]2C3)[n+]([O-])c2ccc(Br)cc21 [SRI-012467] | – | – | – | – | MIC (Mtb H37Rv [2]; [3]): 0.312 µg/mL (≈ 0.888 µM); VERO Tox-SRI (Vero cells; African green monkey, 72 h): 0.81
25 | Cc1cccc2c1[n+]([O-])c(NC1CCCC1)n[n+]2[O-] [SRI-012473] | – | – | – | – | MIC (Mtb H37Rv [2]; [3]): 0.312 µg/mL (≈ 1.2 µM); VERO Tox-SRI (Vero cells; African green monkey, 72 h): 3.7
26 | CCNc1n[n+]([O-])c2cc3c(cc2[n+]1[O-])CCCC3 [SRI-012496] | – | – | – | – | MIC (Mtb H37Rv [2]; [5]): 1.25 µg/mL (≈ 4.8 µM); MIC (Mtb H37Rv [2]; [6]): 1.25 µg/mL (≈ 4.8 µM); VERO Tox-SRI (Vero cells; African green monkey, 72 h): 21.78
27 | [O-][n+]1nc(NC2CCC2)[n+]([O-])c2cc3c(cc21)CCCC3 [SRI-012497] | – | – | – | – | MIC (Mtb H37Rv [2]; [5]): 1.25 µg/mL (≈ 4.37 µM); MIC (Mtb H37Rv [2]; [6]): 1.25 µg/mL (≈ 4.37 µM); VERO Tox-SRI (Vero cells; African green monkey, 72 h): 50
28 | [O-][n+]1nc(NC2CC3CCC2C3)[n+]([O-])c2cc3c(cc21)CCCC3 (stereo not drawn) [SRI-012498] | – | – | – | – | MIC (Mtb H37Rv [2]; [5]): 1.25 µg/mL (≈ 3.83 µM); MIC (Mtb H37Rv [2]; [6]): 1.25 µg/mL (≈ 3.83 µM); VERO Tox-SRI (Vero cells; African green monkey, 72 h): 50
